Measurements as given in the supplement of paper PMC10307832.

What was measured:
Test in all cases: relative viability (nuclei count vs DMSO), 5 days (fraction); higher = more cells survive
GSK-J4 + Alpelisib = compound: CCOC(=O)CCNc1cc(N2CCc3ccccc3CC2)nc(-c2ccccn2)n1 [GSK-J4] + Cc1nc(NC(=O)N2CCC[C@H]2C(N)=O)sc1-c1ccnc(C(C)(C)C(F)(F)F)c1 [Alpelisib] (partner 2 µM)
In short: (§1)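 Lung cancer cell lines were seeded in 1536-well plates and dosed by pin tool the next day, with either a single drug or a fixed anchor-drug dose combined with five library-drug doses (not always all listed) spaced in √10 steps. Five days later, one step fixed the cells and stained their nuclei (final 0.05% Triton X-100, 1% formaldehyde, 1 ug/ml Hoechst), and nuclei were counted on 4× images. Relative viability is the nuclei count in treated wells divided by the count in vehicle wells, and each value is the median of duplicate plates.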

GSK-J4 + Dasatinib = compound: CCOC(=O)CCNc1cc(N2CCc3ccccc3CC2)nc(-c2ccccn2)n1 [GSK-J4] + Cc1nc(Nc2ncc(C(=O)Nc3c(C)cccc3Cl)s2)cc(N2CCN(CCO)CC2)n1 [Dasatinib] (partner 0.075 µM)
In short: as §1

AZ3146 + Foretinib = compound: CN1CCC(CC1)OC2=CC(=C(C=C2)NC3=NC=C4C(=N3)N(C(=O)N4C)C5CCCC5)OC [AZ3146] + COc1cc2c(Oc3ccc(NC(=O)C4(C(=O)Nc5ccc(F)cc5)CC4)cc3F)ccnc2cc1OCCCN1CCOCC1 [Foretinib] (partner 0.25 µM)
In short: as §1

AZ3146 + Crizotinib = compound: CN1CCC(CC1)OC2=CC(=C(C=C2)NC3=NC=C4C(=N3)N(C(=O)N4C)C5CCCC5)OC [AZ3146] + C[C@@H](Oc1cc(-c2cnn(C3CCNCC3)c2)cnc1N)c1c(Cl)ccc(F)c1Cl [Crizotinib] (partner 1 µM)
In short: as §1

Row | Cell Line | relative viability (GSK-J4 + Alpelisib; first compound 0.5 µM) | relative viability (GSK-J4 + Alpelisib; first compound 1.581 µM) | relative viability (GSK-J4 + Alpelisib; first compound 5 µM) | relative viability (GSK-J4 + Alpelisib; first compound 15.81 µM) | relative viability (GSK-J4 + Alpelisib; first compound 50 µM) | relative viability (GSK-J4 + Dasatinib; first compound 0.5 µM) | relative viability (GSK-J4 + Dasatinib; first compound 1.581 µM) | relative viability (GSK-J4 + Dasatinib; first compound 5 µM) | relative viability (GSK-J4 + Dasatinib; first compound 15.81 µM) | relative viability (GSK-J4 + Dasatinib; first compound 50 µM) | relative viability (AZ3146 + Foretinib; first compound 0.08 µM) | relative viability (AZ3146 + Foretinib; first compound 0.253 µM) | relative viability (AZ3146 + Foretinib; first compound 0.8 µM) | relative viability (AZ3146 + Foretinib; first compound 2.53 µM) | relative viability (AZ3146 + Foretinib; first compound 8 µM) | relative viability (AZ3146 + Crizotinib; first compound 0.08 µM) | relative viability (AZ3146 + Crizotinib; first compound 0.253 µM) | relative viability (AZ3146 + Crizotinib; first compound 0.8 µM) | relative viability (AZ3146 + Crizotinib; first compound 2.53 µM) | relative viability (AZ3146 + Crizotinib; first compound 8 µM)
1 | 201T | 0.977 | 0.831 | 1.02 | 0.988 | 0.9 | 0.576 | 0.6 | 0.639 | 0.391 | 0.348 | 0.945 | 1.02 | 1.08 | 1.13 | 1.06 | 1.02 | 1.03 | 1 | 1.06 | 1.02
2 | A549 | 0.765 | 0.578 | 0.669 | 0.823 | 0.691 | – | – | – | – | – | 1.08 | 0.952 | 0.743 | 0.177 | 0.063 | 0.655 | 0.777 | 0.453 | 0.0847 | 0.0598
3 | A-427 | 1 | – | 1.17 | 1.08 | 0.561 | 0.609 | – | 0.363 | 0.655 | 0.274 | 1.02 | 1.07 | 1 | 0.989 | 1.11 | 0.877 | 0.927 | 0.869 | 0.804 | 0.444
4 | ABC-1 | 1.2 | 0.898 | 1.04 | 0.971 | 0.735 | 0.47 | 0.546 | 0.465 | 0.598 | 0.297 | 0.98 | 1.01 | 1.29 | 1.1 | 0.709 | 0.852 | 1.38 | 1.03 | 1.07 | 0.452
5 | BEN | 1.04 | 0.882 | – | 0.974 | 0.948 | 0.398 | 0.362 | – | 0.304 | 0.284 | – | 0.447 | 0.587 | 0.715 | 0.698 | – | 0.869 | 0.97 | 0.822 | 0.829
6 | CAL-12T | 1.12 | 1.11 | 1.43 | 1.29 | 1.29 | 0.431 | 0.477 | 0.465 | 0.405 | 0.335 | 1.08 | 1.12 | 1.04 | 0.98 | 0.788 | 0.507 | 0.72 | 0.595 | 0.733 | 0.247
7 | COR-L23 | 0.677 | 0.709 | – | 0.68 | 0.781 | 0.477 | 0.393 | – | 0.409 | 0.413 | 0.979 | 1.08 | 0.877 | 0.987 | 0.787 | 0.506 | 0.649 | 0.622 | 0.502 | 0.407
8 | COR-L 105 | 1.11 | 0.99 | 1.07 | 0.912 | 1.16 | 0.338 | 0.38 | 0.276 | 0.315 | 0.326 | 1.11 | 1.04 | 0.857 | 0.687 | 0.455 | 0.756 | 0.745 | 0.508 | 0.518 | 0.332
9 | Calu-6 | 0.914 | 0.815 | 0.834 | 1.05 | 0.915 | – | – | – | – | – | 0.792 | 0.996 | 0.891 | 0.792 | 0.48 | 0.715 | 0.763 | 0.701 | 0.465 | 0.256
10 | ChaGo-K-1 | – | – | – | – | – | 0.618 | 0.501 | 0.461 | 0.592 | 0.518 | 0.93 | 0.823 | 0.872 | 0.923 | 0.816 | 1 | 1.26 | 0.951 | 0.593 | 0.328
11 | EBC-1 | 0.742 | 0.72 | 0.9 | 0.824 | 0.423 | – | – | – | – | – | 0.112 | 0.0981 | 0.119 | 0.111 | 0.117 | 0.192 | 0.213 | 0.173 | 0.194 | 0.166
12 | EKVX | 0.848 | 0.769 | 0.952 | 0.824 | 0.776 | 0.535 | – | 0.569 | – | 0.43 | 0.798 | 0.753 | 0.735 | 0.869 | 0.788 | 0.957 | 1.12 | 1.06 | 1.1 | 0.365
13 | EMC-BAC-2 | 0.755 | 0.717 | 0.785 | 0.716 | 0.691 | 0.317 | 0.333 | 0.191 | 0.339 | 0.258 | 1.06 | 1.04 | 1.18 | 1.1 | 1.03 | 0.679 | 0.696 | 0.884 | 0.763 | 0.731
14 | EPLC-272H | 0.887 | – | 0.845 | 0.933 | 0.943 | 0.418 | 0.327 | 0.262 | 0.357 | 0.282 | – | 0.784 | 0.629 | 0.732 | 0.721 | 0.78 | 0.843 | 1.02 | 1.14 | 0.975
15 | H3255 | 0.591 | 0.64 | 0.614 | 0.593 | 0.531 | 0.361 | 0.364 | 0.416 | 0.369 | 0.386 | 0.773 | 0.764 | 0.927 | 1.04 | 0.922 | 0.841 | 0.884 | 0.886 | 1.03 | 0.442
16 | HARA | 0.815 | 0.441 | – | 0.785 | 0.646 | 0.267 | – | – | 0.24 | 0.258 | 0.823 | 0.858 | 0.895 | 0.895 | 0.197 | 0.983 | 1.03 | 1.03 | 0.72 | 0.206
17 | HCC-15 | 0.909 | 0.751 | 0.912 | 0.868 | 0.571 | 0.624 | – | 0.526 | 0.476 | 0.393 | 1.1 | 0.981 | 1.06 | 1.08 | 0.791 | 0.83 | 0.863 | 0.768 | 0.677 | 0.445
18 | HCC-44 | 0.791 | 0.781 | 0.709 | 0.776 | 0.711 | – | – | – | – | – | – | – | – | – | – | 0.779 | 0.791 | 0.724 | 0.796 | 0.668
